Patent US20230309555A1, “ENVIRONMENTALLY RESPONSIVE TRANS-2-HEXENAL SUSTAINED-RELEASE AGENT, PREPARATION METHOD, AND APPLICATION” (ZHEJIANG UNIVERSITY, priority 2022, published 2023)

Columns and labels:
Botrytis cinerea [1] = test: growth of Botrytis cinerea on potato dextrose agar plate medium; format: cell-based; settings: after 4 days culture at 25 °C
Protocol: Botrytis cinerea lesion with a diameter of 5 mm was inoculated on the center of a potato dextrose agar medium plate. The experiment was performed by seven groups as follows: • a. A BLANK group: nothing was added; • b. A GSH group: 1 g reductive glutathione was added to a lid of a Petri dish and the Petri dish was sealed immediately; • c. A GSH3h group: 1 g reductive glutathione was added to a lid of a Petri dish and then the Petri dish was sealed after being left open for 3 h at room temperature; • d. A Group […]: 20 μL trans-2-hexenal was added to a lid of a Petri dish and the Petri dish was sealed immediately; • e. An E-2-[…] group: 20 μL trans-2-hexenal was added to a lid of a Petri dish and the Petri dish was sealed after being left open for 3 h at room temperature; • f. […] After all groups were sealed completely, the groups were inverted and cultured at 25° C.The growth of Botrytis cinerea was checked regularly.

[2] = 0.05 g product, sealed vial 7 d; 4, 25, 45 °C; relative humidity 0%, 30%, 50%, 70%, 85%, 100%
Protocol: 20 mL glass vials were filled with 3 g of silica gel, 3 mL of saturated magnesium chloride solution, 3 mL of saturated potassium carbonate solution, 3 mL of saturated potassium iodide solution, 3 mL of saturated of potassium chloride solution, and 3 mL of pure water and then sealed until reaching relative humidity of 0%, 30%, 50%, 70%, 85% and 100%, respectively, and the mixed solution was balanced at 4° C. for 1 h. 0.05 g product was weighed and placed in a 2 mL glass vial, then transferred to the 20 mL glass vial and sealed for 7 d, and the release amount was measured every day.
20 mL glass vials were filled with 3 g of silica gel, 3 mL of saturated magnesium chloride solution, 3 mL of saturated potassium carbonate solution, 3 mL of saturated potassium iodide solution, 3 mL of saturated potassium chloride solution, and 3 mL of pure water until reaching relative humidity of 0%, 30%, 50%, 70%, 85% and 100%, respectively, and the mixed solution was balanced at 25° C. for 1 h. 0.05 g product was weighed in a 2 mL glass vial, then transferred to the 20 mL glass vial and sealed for 7 d, and the release amount was measured every day. […]

Botrytis cinerea [3] = settings: strawberries injected with 4 µL of 5×10^5 cfu/mL Botrytis cinerea; 6 g product at bottom of fresh-keeping box; room temperature
Protocol: Strawberries which were harvested at the same maturity, similar in size and without any infestation with insects or pets and damage, were selected. The strawberries were surface-sterilized by immersing in 0.5% (v/v) sodium hypochlorite for 5 min, then washed with sterile water to remove residues and dried at room temperature. The strawberries were randomly divided into 2 groups, each group including 33 strawberries, and then packed into a certain volume of fresh-keeping boxes (11 strawberries per box). In group a, 4 µL of 5×10^5cfu/mL of Botrytis cinerea solution was injected into the equatorial part of the strawberry. […] The experiment was conducted at room temperature and the strawberries were observed daily for decay, and the diameter of the lesions was measured daily.

[4] = Petri dish sealed after being left open for 3 h at room temperature
[5] = Petri dish sealed immediately after addition

Compound	lesion diameter of Botrytis cinerea on plate medium (Botrytis cinerea [1]; [4])	lesion diameter of Botrytis cinerea on plate medium (Botrytis cinerea [1]; [5])	release rate of trans-2-hexenal from the products [2]	difference in bacterial inhibition results between group sealed immediately and group sealed after being left open for 3 h (Botrytis cinerea [1]; 1 g product)	bacterial inhibition (incidence of fruit gray mold) (Botrytis cinerea [3])	growth diameters of the lesion of fruit (Botrytis cinerea [3])
CCC/C=C/C=O [trans-2-hexenal]	larger than that of the glutathione/trans-2-hexenal addition product group	significantly lower lesion diameter than other groups				
CCCC(CC=O)SC[C@H](NC(=O)CC[C@H](N)C(=O)O)C(=O)NCC(=O)O (stereo partly shown)	significantly smaller than that of the blank group	significantly smaller than that of the blank group	increased with the increase in relative humidity and temperature	little difference	better than the control group	lower than that of the control group
N[C@@H](CCC(=O)N[C@@H](CS)C(=O)NCC(=O)O)C(=O)O [reductive glutathione]	not significantly different from the blank group	not significantly different from the blank group				
